The record followed here is the supplement of paper PMC10307832.

Common to all, as to experiment: relative viability (nuclei count vs DMSO), 5 days (fraction); higher = more cells survive
Compound in the assay “Ponatinib + Phenformin”: Cc1ccc(C(=O)Nc2ccc(CN3CCN(C)CC3)c(C(F)(F)F)c2)cc1C#Cc1cnc2cccnn12 [Ponatinib] + N=C(N)NC(=N)NCCc1ccccc1 [Phenformin] (partner 250 µM)
The method in brief: (§1)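 Nuclei were stained with Hoechst during a one-step fixation (final 0.05% Triton X-100, 1% formaldehyde, 1 ug/ml Hoechst) carried out 5 days after dosing, then counted on 4× images. The cells, lung cancer lines in 1536-well plates, had been dosed by pin tool the day after seeding with one drug alone or a fixed anchor-drug dose plus five library-drug doses (not always all listed) in √10 steps. Relative viability is the nuclei count in treated wells divided by that in vehicle wells, and each value is the median of duplicate plates.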

Compound in the assay “Ponatinib + Luminespib”: Cc1ccc(C(=O)Nc2ccc(CN3CCN(C)CC3)c(C(F)(F)F)c2)cc1C#Cc1cnc2cccnn12 [Ponatinib] + CCNC(=O)c1noc(-c2cc(C(C)C)c(O)cc2O)c1-c1ccc(CN2CCOCC2)cc1 [Luminespib] (partner 0.01 µM)
The method in brief: as §1

Compound in the assay “Ponatinib + Decitabine”: Cc1ccc(C(=O)Nc2ccc(CN3CCN(C)CC3)c(C(F)(F)F)c2)cc1C#Cc1cnc2cccnn12 [Ponatinib] + Nc1ncn([C@H]2C[C@H](O)[C@@H](CO)O2)c(=O)n1 [Decitabine] (partner 2 µM)
The method in brief:
as §1

Compound in the assay “Pazopanib + Linsitinib”: Cc1ccc(Nc2nccc(N(C)c3ccc4c(C)n(C)nc4c3)n2)cc1S(N)(=O)=O [Pazopanib] + C[C@]1(O)C[C@@H](c2nc(-c3ccc4ccc(-c5ccccc5)nc4c3)c3c(N)nccn32)C1 [Linsitinib] (partner 1 µM)
The method in brief:
as §1

With LC-2-ad, the relative viability turned out to be 0.415 with Ponatinib + Phenformin (first compound 0.002 µM); 0.542 with Ponatinib + Phenformin (first compound 0.006325 µM); 0.498 in the assay with Ponatinib + Phenformin (first compound 0.06325 µM); 0.462 with Ponatinib + Phenformin (first compound 0.2 µM); 0.968 in the assay with Ponatinib + Luminespib (first compound 0.002 µM); 0.93 with Ponatinib + Luminespib (first compound 0.006325 µM). In addition, the relative viability turned out to be 1.17 with Ponatinib + Luminespib (first compound 0.06325 µM); 0.855 in the assay with Ponatinib + Luminespib (first compound 0.2 µM); 0.738 with Ponatinib + Decitabine (first compound 0.002 µM); 0.684 with Ponatinib + Decitabine (first compound 0.006325 µM); 0.696 with Ponatinib + Decitabine (first compound 0.06325 µM); 0.582 with Ponatinib + Decitabine (first compound 0.2 µM). Also, the relative viability in the assay with Pazopanib + Linsitinib (first compound 0.01 µM) came out at 0.813; with Pazopanib + Linsitinib (first compound 0.03162 µM), 0.778; with Pazopanib + Linsitinib (first compound 0.1 µM), 0.868; with Pazopanib + Linsitinib (first compound 0.3162 µM), 0.8; with Pazopanib + Linsitinib (first compound 1 µM), 0.842.

COR-L 105: the relative viability came to 0.421 with Ponatinib + Phenformin (first compound 0.002 µM); 0.479 with Ponatinib + Phenformin (first compound 0.006325 µM); 0.501 in the assay with Ponatinib + Phenformin (first compound 0.06325 µM); 0.466 in the assay with Ponatinib + Phenformin (first compound 0.2 µM); 0.651 with Ponatinib + Luminespib (first compound 0.002 µM); 0.931 in the assay with Ponatinib + Luminespib (first compound 0.006325 µM). Further, the relative viability with Ponatinib + Luminespib (first compound 0.06325 µM) turned out to be 0.845; with Ponatinib + Luminespib (first compound 0.2 µM) it was 0.895; in the assay with Ponatinib + Decitabine (first compound 0.002 µM), 0.671; in the assay with Ponatinib + Decitabine (first compound 0.006325 µM) it was 0.674; with Ponatinib + Decitabine (first compound 0.06325 µM), 0.821; in the assay with Ponatinib + Decitabine (first compound 0.2 µM), 0.61. The relative viability was 0.909 with Pazopanib + Linsitinib (first compound 0.01 µM); 0.964 in the assay with Pazopanib + Linsitinib (first compound 0.03162 µM); 1.1 with Pazopanib + Linsitinib (first compound 0.1 µM); 0.822 with Pazopanib + Linsitinib (first compound 0.3162 µM); 1.21 with Pazopanib + Linsitinib (first compound 1 µM).

NCI-H1355: the relative viability in the assay with Ponatinib + Phenformin (first compound 0.002 µM) is 0.44; in the assay with Ponatinib + Phenformin (first compound 0.006325 µM), 0.467; with Ponatinib + Phenformin (first compound 0.06325 µM) it was 0.491; with Ponatinib + Phenformin (first compound 0.2 µM), 0.452; with Ponatinib + Luminespib (first compound 0.002 µM), 0.688; in the assay with Ponatinib + Luminespib (first compound 0.006325 µM), 0.667. Further, the relative viability with Ponatinib + Luminespib (first compound 0.06325 µM) was 0.874; with Ponatinib + Luminespib (first compound 0.2 µM), 0.709; with Ponatinib + Decitabine (first compound 0.002 µM), 0.335; with Ponatinib + Decitabine (first compound 0.006325 µM) it was 0.355; in the assay with Ponatinib + Decitabine (first compound 0.06325 µM), 0.399; with Ponatinib + Decitabine (first compound 0.2 µM) it was 0.346. In addition, the relative viability amounted to 0.909 in the assay with Pazopanib + Linsitinib (first compound 0.03162 µM), 0.921 in the assay with Pazopanib + Linsitinib (first compound 0.1 µM), 0.856 with Pazopanib + Linsitinib (first compound 0.3162 µM) and 0.861 with Pazopanib + Linsitinib (first compound 1 µM).

On to H3255, for which the relative viability in the assay with Ponatinib + Phenformin (first compound 0.002 µM) is 0.366; with Ponatinib + Phenformin (first compound 0.006325 µM), 0.366; with Ponatinib + Phenformin (first compound 0.06325 µM), 0.393; with Ponatinib + Phenformin (first compound 0.2 µM), 0.329; with Ponatinib + Luminespib (first compound 0.002 µM) it was 0.862; with Ponatinib + Luminespib (first compound 0.006325 µM) it was 0.887. Moreover, the relative viability with Ponatinib + Luminespib (first compound 0.06325 µM) was determined as 0.805; with Ponatinib + Luminespib (first compound 0.2 µM) it was 0.929; in the assay with Ponatinib + Decitabine (first compound 0.002 µM), 0.566; in the assay with Ponatinib + Decitabine (first compound 0.006325 µM), 0.512; in the assay with Ponatinib + Decitabine (first compound 0.06325 µM), 0.717; in the assay with Ponatinib + Decitabine (first compound 0.2 µM), 0.552. In addition, the relative viability with Pazopanib + Linsitinib (first compound 0.01 µM) was 0.888; with Pazopanib + Linsitinib (first compound 0.03162 µM), 0.954; with Pazopanib + Linsitinib (first compound 0.1 µM) it was 1.01; with Pazopanib + Linsitinib (first compound 0.3162 µM), 0.814; with Pazopanib + Linsitinib (first compound 1 µM), 1.03.

Turning to NCI-H1993, the relative viability with Ponatinib + Phenformin (first compound 0.002 µM) was 0.57; in the assay with Ponatinib + Phenformin (first compound 0.006325 µM), 0.512; in the assay with Ponatinib + Phenformin (first compound 0.06325 µM) it was 0.532; with Ponatinib + Phenformin (first compound 0.2 µM), 0.508; with Ponatinib + Luminespib (first compound 0.002 µM), 0.778; with Ponatinib + Luminespib (first compound 0.006325 µM), 0.921. Besides, the relative viability in the assay with Ponatinib + Luminespib (first compound 0.06325 µM) came out at 0.991; in the assay with Ponatinib + Luminespib (first compound 0.2 µM) it was 0.932; with Ponatinib + Decitabine (first compound 0.002 µM), 0.549; with Ponatinib + Decitabine (first compound 0.006325 µM) it was 0.583; in the assay with Ponatinib + Decitabine (first compound 0.06325 µM), 0.671; with Ponatinib + Decitabine (first compound 0.2 µM) it was 0.61. In addition, the relative viability in the assay with Pazopanib + Linsitinib (first compound 0.01 µM) was found to be 0.717; in the assay with Pazopanib + Linsitinib (first compound 0.03162 µM) it was 0.757; with Pazopanib + Linsitinib (first compound 0.1 µM), 0.726; in the assay with Pazopanib + Linsitinib (first compound 0.3162 µM), 0.638; with Pazopanib + Linsitinib (first compound 1 µM) it was 0.852.

NCI-H1734: the relative viability with Ponatinib + Phenformin (first compound 0.002 µM) was determined as 0.395; with Ponatinib + Phenformin (first compound 0.006325 µM) it was 0.393; in the assay with Ponatinib + Phenformin (first compound 0.06325 µM), 0.347; with Ponatinib + Phenformin (first compound 0.2 µM), 0.303; in the assay with Ponatinib + Luminespib (first compound 0.002 µM), 0.195; with Ponatinib + Luminespib (first compound 0.006325 µM), 0.181. Moreover, the relative viability was found to be 0.186 with Ponatinib + Luminespib (first compound 0.06325 µM); 0.173 with Ponatinib + Luminespib (first compound 0.2 µM); 0.477 with Ponatinib + Decitabine (first compound 0.002 µM); 0.459 in the assay with Ponatinib + Decitabine (first compound 0.006325 µM); 0.524 with Ponatinib + Decitabine (first compound 0.06325 µM); 0.429 with Ponatinib + Decitabine (first compound 0.2 µM). The relative viability in the assay with Pazopanib + Linsitinib (first compound 0.01 µM) was found to be 0.823; with Pazopanib + Linsitinib (first compound 0.03162 µM), 0.963; in the assay with Pazopanib + Linsitinib (first compound 0.1 µM) it was 0.905; with Pazopanib + Linsitinib (first compound 0.3162 µM), 0.942; with Pazopanib + Linsitinib (first compound 1 µM), 0.933.

HOP-62: the relative viability with Ponatinib + Phenformin (first compound 0.002 µM) was 0.602; with Ponatinib + Phenformin (first compound 0.006325 µM) it was 0.635; in the assay with Ponatinib + Phenformin (first compound 0.06325 µM), 0.633; in the assay with Ponatinib + Phenformin (first compound 0.2 µM), 0.624; in the assay with Ponatinib + Luminespib (first compound 0.002 µM), 0.87; with Ponatinib + Luminespib (first compound 0.006325 µM), 0.946. The relative viability with Ponatinib + Luminespib (first compound 0.06325 µM) was determined as 0.835; with Ponatinib + Luminespib (first compound 0.2 µM), 0.781; with Ponatinib + Decitabine (first compound 0.002 µM) it was 0.213; with Ponatinib + Decitabine (first compound 0.006325 µM) it was 0.168; in the assay with Ponatinib + Decitabine (first compound 0.06325 µM) it was 0.21; in the assay with Ponatinib + Decitabine (first compound 0.2 µM), 0.183. Moreover, the relative viability with Pazopanib + Linsitinib (first compound 0.01 µM) was determined as 0.9; with Pazopanib + Linsitinib (first compound 0.03162 µM), 0.973; with Pazopanib + Linsitinib (first compound 0.3162 µM), 1; in the assay with Pazopanib + Linsitinib (first compound 1 µM) it was 0.859.

Regarding LOU-NH91, the relative viability with Ponatinib + Phenformin (first compound 0.002 µM) came out at 0.683; with Ponatinib + Phenformin (first compound 0.006325 µM), 0.73; with Ponatinib + Phenformin (first compound 0.06325 µM), 0.766; in the assay with Ponatinib + Phenformin (first compound 0.2 µM) it was 0.676; in the assay with Ponatinib + Luminespib (first compound 0.002 µM) it was 0.317; with Ponatinib + Luminespib (first compound 0.006325 µM), 0.318. Also, the relative viability in the assay with Ponatinib + Luminespib (first compound 0.06325 µM) was determined as 0.393; with Ponatinib + Luminespib (first compound 0.2 µM) it was 0.404; with Ponatinib + Decitabine (first compound 0.002 µM) it was 0.778; with Ponatinib + Decitabine (first compound 0.006325 µM), 0.788; with Ponatinib + Decitabine (first compound 0.06325 µM), 0.868; with Ponatinib + Decitabine (first compound 0.2 µM) it was 0.766. For the same cell line, the relative viability turned out to be 0.89 with Pazopanib + Linsitinib (first compound 0.01 µM); 0.98 with Pazopanib + Linsitinib (first compound 0.03162 µM); 0.984 with Pazopanib + Linsitinib (first compound 0.1 µM); 1.04 with Pazopanib + Linsitinib (first compound 0.3162 µM); 0.935 with Pazopanib + Linsitinib (first compound 1 µM).

For PC-3 [JPC-3], the relative viability stood at 0.461 with Ponatinib + Phenformin (first compound 0.002 µM); 0.502 with Ponatinib + Phenformin (first compound 0.006325 µM); 0.502 with Ponatinib + Phenformin (first compound 0.06325 µM); 0.477 with Ponatinib + Phenformin (first compound 0.2 µM); 0.649 with Ponatinib + Luminespib (first compound 0.002 µM); 0.697 in the assay with Ponatinib + Luminespib (first compound 0.006325 µM). Further, the relative viability turned out to be 0.811 in the assay with Ponatinib + Luminespib (first compound 0.06325 µM); 0.668 in the assay with Ponatinib + Luminespib (first compound 0.2 µM); 0.871 in the assay with Ponatinib + Decitabine (first compound 0.006325 µM); 0.849 with Ponatinib + Decitabine (first compound 0.06325 µM); 0.838 with Ponatinib + Decitabine (first compound 0.2 µM); 0.993 with Pazopanib + Linsitinib (first compound 0.01 µM). Besides, the relative viability in the assay with Pazopanib + Linsitinib (first compound 0.03162 µM) amounted to 0.972; with Pazopanib + Linsitinib (first compound 0.1 µM) it was 0.961; with Pazopanib + Linsitinib (first compound 0.3162 µM) it was 0.918; with Pazopanib + Linsitinib (first compound 1 µM), 0.961.
